# Assay results: paper PMC3240959 (2011)
# Biological target: T1, PfTrx-2 (Plasmodium falciparum thioredoxin-2, MAL13P1.225) (Plasmodium falciparum, UniProt Q8IDP4)
# T1 sequence (Q8IDP4 28-157): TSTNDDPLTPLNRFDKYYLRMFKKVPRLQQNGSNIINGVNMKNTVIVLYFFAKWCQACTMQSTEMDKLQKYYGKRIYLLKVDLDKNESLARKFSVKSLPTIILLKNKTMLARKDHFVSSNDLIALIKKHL
# Experiment: insulin reduction
# Type: biochemical
compound,measurement,value
"O=C(O)CC([S][Au])C(=O)O (racemic) [ATM, Aurothiomalate]",IC50,~20 µM
